Data published in article PMC5509998, “Autotaxin–lysophosphatidic acid–LPA 3 signaling at the embryo‐epithelial boundary controls decidualization pathways” (The EMBO Journal, 2017).

Target: T1, autotaxin (ATX, ENPP2) (Mus musculus, UniProt Q9R1E6)
T1 construct: recombinant ATX; mouse ENPP proteins expressed in HEK293A cells (culture supernatants)
Experiment: colorimetric phosphodiesterase assay with p-nitrophenyl TMP as substrate
Type: biochemical

SMILES: CCCCCn1c(-c2ccc(C(=O)NCCN3CCOCC3)cc2)cc(=O)n2cc(-c3ccc(Cl)cc3)nc12 [S15-00826]
- IC50: ~38 nM
